We go through 18 compounds from patent US12018023B2 (NERVIANO MEDICAL SCIENCES S.R.L., priority 2018, dated 2024).

Like-named read-outs stand apart in the source and are kept apart here.

Test [1] deals with T1, IDH1^R132H homodimer enzyme (Homo sapiens, UniProt O75874, R132H).
T1 construct: purchased not specified
Description: NADPH depletion assay, IDH1 R132H. Format: biochemical. An outline of the steps:
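IDH1 R132H enzyme (8 nM as diluted) in Tris-HCl pH 7.6 with 10 mM MgCl2, 0.001% Triton X-100 and 4 mM β-mercaptoethanol is preincubated 15 min at RT with compound. Substrate mix (12 uM NADPH, 3.4 mM α-ketoglutarate) is added for 60 min; remaining NAD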

The next test concerns U87MG_IDH1R132H. Put plainly: Cellular 2-HG production assay, U87-MG-IDH1 R132H. The format is cell-based. As to conditions: inhibition of 2HG production, 72 hr incubation, LC-MS/MS. As to the method:
(§1) Cell lines HT-1080 (commercially available) and U87-MG-IDH1^R132H (obtained in analoy to the procedure reported in J. Mol. Neurosci 2013, 50, 165-71) are maintained in E-MEM 10% FCS and incubated at 37° C. in a humidified 5% CO2 atmosphere. Stably transfected U87-MG cell lines are also supplemented with 500 μg/mL G418.
(§2) Cells are seeded into 96 well black flat bottom plates at a density of 500 cells/well in 100 μL complete medium. After 24 hr the medium is replaced with 200 uL of fresh medium and compounds (dissolved into DMSO) are administrated to the cells using D300E Digital Dispenser (Tecan).
(§3) After 72 hr of incubation 100 uL from each well are collected and used for 2HG (R(−)-2-hydroxyglutarate) quantification.
(§4) Levels of 2-HG in cell culture media are determined by LC-MS/MS. Cell supernatants (100 μL/well) are treated with 1 M aqueous trichloroacetic acid containing 130 μM of the internal standard 2-HG-d3 (20 μL/well) in a 96-well plate.
(§5) The plates are sealed, mildly vortexed for 60 minutes, centrifuged at 4,000 RPM for 15 minutes, placed in a refrigerated autosampler taking care not to shake them, and aliquots of the upper part of the samples are directly injected in the chromatographic system. Calibration standards are obtained by ten fold dilution of aqueous 2-HG stock solutions with blank cell culture medium and denatured exactly in the same way as described above for samples. Samples and standards are assayed for 2-HG by reversed phase chromatography on a C18 column eluted with aqueous 0.15% formic acid and briefly washed with 90% methanol at the end of the run. 2-HG is determined by negative ion electrospray ionization with the internal standard method on a triple quadrupole mass spectrometer monitoring the MRM transitions 147>129 (2-HG) and 150>132 (2-HG-d3). 2-HG inhibition was calculated by comparing treated versus control data using Assay Explore (Symyx) software, with IC50 determined using a sigmoidal fitting algorithm.

Another test concerns the target T2, IDH1^R132C (Homo sapiens, UniProt O75874, R132C).
T2 construct: purchased not specified
Put plainly: NADPH depletion assay, IDH1 R132C. The format is biochemical. Put shortly:
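Fluorescence readout (Ex544/Em590) of NADPH left after diaphorase/resazurin addition. Alpha-ketoglutarate 0.14 mM final, enzyme 2 nM final; compound preincubation 15 min, then 60 min reaction, both at room temperature, pH 7.6 Tris buffer.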

In the next test the test system is HT-1080 (IDH1^R132C). Description: Cellular 2-HG production assay, HT-1080. The format is cell-based. As to conditions: read-out: HT1080 2-HG IC50. As to the method:
as §1, §2, §3, §4, §5

A further test deals with T3, IDH2^R172K (Homo sapiens, UniProt P48735, R172K).
T3 construct: purchased not specified
T3 sequence (P48735 40-452 R172K): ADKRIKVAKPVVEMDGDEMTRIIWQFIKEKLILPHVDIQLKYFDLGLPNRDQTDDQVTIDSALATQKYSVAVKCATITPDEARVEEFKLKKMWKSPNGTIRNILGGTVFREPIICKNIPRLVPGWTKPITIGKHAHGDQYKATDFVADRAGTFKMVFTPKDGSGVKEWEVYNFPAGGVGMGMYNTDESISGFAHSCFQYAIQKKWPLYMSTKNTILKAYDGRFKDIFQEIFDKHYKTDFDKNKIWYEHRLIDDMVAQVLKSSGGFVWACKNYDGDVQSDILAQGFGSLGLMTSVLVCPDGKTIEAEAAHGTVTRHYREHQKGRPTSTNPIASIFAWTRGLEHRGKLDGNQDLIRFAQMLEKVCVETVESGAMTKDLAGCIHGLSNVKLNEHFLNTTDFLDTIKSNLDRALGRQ
Description: NADPH depletion assay, IDH2 R172K. Format: biochemical. An outline of the steps:
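This NADPH depletion assay measures NADPH left after conversion of alpha-ketoglutarate (0.55 mM final) by 16 nM IDH2 R172K over 60 min at room temperature, after a 15 min compound preincubation in pH 7.6 Tris buffer. Substrate mix held 12 μM NADPH. Diaphorase/resazurin gave the fluorescence read-out at 544/590 nm.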

[2] abbreviates: Homo sapiens, HT-1080, 72 h, inhibition of 2HG production, 72 hr incubation, LC-MS/MS.

T1 sequence (O75874 whole entry R132H): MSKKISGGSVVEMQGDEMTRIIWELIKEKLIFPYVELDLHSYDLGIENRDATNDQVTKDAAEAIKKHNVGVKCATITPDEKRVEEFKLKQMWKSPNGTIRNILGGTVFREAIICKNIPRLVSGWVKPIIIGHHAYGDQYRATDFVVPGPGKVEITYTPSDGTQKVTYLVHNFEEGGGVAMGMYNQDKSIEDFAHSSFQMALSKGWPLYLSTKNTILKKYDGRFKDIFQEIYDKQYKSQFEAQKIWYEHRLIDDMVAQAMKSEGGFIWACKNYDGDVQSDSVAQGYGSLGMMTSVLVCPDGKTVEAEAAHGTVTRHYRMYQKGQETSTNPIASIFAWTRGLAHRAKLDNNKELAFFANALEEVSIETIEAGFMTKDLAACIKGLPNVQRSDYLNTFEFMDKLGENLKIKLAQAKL
T2 sequence (O75874 whole entry R132C): as the sequence (O75874 whole entry R132H) above, with H132C counted along it

Take `CC(C)[C@H](C)n1c(=O)ccc2cnc(N[C@@H](C)c3ccc(CN4C[C@@H](C)O[C@@H](C)C4)c(F)c3)nc21` [cpd 150, 2-{[(1S)-1-(4-{[(2R,6S)-2,6-dimethylmorpholin-4-yl]methyl}-3-fluorophenyl)ethyl]amino}-8-[(2S)-3-methylbutan-2-yl]pyrido[2,3-d]pyrimidin-7(8H)-one]: the half-inhibitory concentration (IC50) (commonly the concentration that inhibits the measured activity by half) was found to be 0.02 µM in test [1], 0.127 µM in the test with U87MG_IDH1R132H and 0.008 µM on IDH1^R132C.
With `C=CC(=O)N1CCN(C(CC)c2ccc([C@H](C)Nc3ncc4ccc(=O)n(C)c4n3)cc2)CC1` (stereo partly drawn) [cpd 215, 2-{[(1S)-1-{4-[1-(4-acryloylpiperazin-1-yl)propyl]phenyl}ethyl]amino}-8-methylpyrido[2,3-d]pyrimidin-7(8H)-one], the IC50 on IDH1^R132C is 0.004 µM; in the test on HT-1080 (IDH1^R132C) (setting [2]), 0.0023 µM.
Take `C=CC(=O)N1CCN([C@@H](CC)c2ccc([C@H](C)Nc3cc4c(ccc(=O)n4CC)cn3)cc2)CC1`: the IC50 in test [1] stood at 0.004 µM; against IDH1^R132C, 0.004 µM; in the test on HT-1080 (IDH1^R132C) (setting [2]), 0.0009 µM; on IDH2^R172K, 0.025 µM.
For `C=CC(=O)N1CCN([C@@H](CC)c2ccc([C@H](C)Nc3cc4c(ccc(=O)n4C(C)C)cn3)cc2)CC1` [cpd 239, 7-{[(1S)-1-{4-[(1S)-1-(4-acryloylpiperazin-1-yl)propyl]phenyl}ethyl]amino}-1-(propan-2-yl)-1,6-naphthyridin-2(1H)-one], the IC50 in test [1] worked out at 0.002 µM; against IDH1^R132C it was 0.002 µM; in the test on HT-1080 (IDH1^R132C) (setting [2]) it was 0.0009 µM; at IDH2^R172K, 0.02 µM.
For the compound `C=CC(=O)N1CCN(Cc2ccc([C@H](C)Nc3ncc4ccc(=O)n(CC)c4n3)cc2)C(C(C)C)C1` (stereo in doubt) [cpd 212, 2-{[(1S)-1-(4-{[(2S)-4-acryloyl-2-(propan-2-yl)piperazin-1-yl]methyl}phenyl)ethyl]amino}-8-ethylpyrido[2,3-d]pyrimidin-7(8H)-one], the IC50 against IDH1^R132C is 0.061 µM; in the test on HT-1080 (IDH1^R132C) (inhibition of 2HG production, 72 hr incubation, LC-MS/MS), 0.0531 µM.
For `CC(C)n1c(=O)ccc2cnc(N[C@@H](C)c3ccc([C@H](CC4CC4)N4CCN(C(=O)CCCl)CC4)cc3)nc21` [cpd 242, 2-{[(1S)-1-(4-{(1S)-1-[4-(3-chloropropanoyl)piperazin-1-yl]-2-cyclopropylethyl}phenyl)ethyl]amino}-8-(propan-2-yl)pyrido[2,3-d]pyrimidin-7(8H)-one], the 50% inhibitory concentration (IC50) on IDH1^R132C came to 0.01 µM; in the test with HT-1080 (IDH1^R132C) (setting [2]) it was 0.0045 µM.
With `C/C=C/C(=O)N1CCN(C(CC)c2ccc([C@H](C)Nc3ncc4ccc(=O)n(C(C)C)c4n3)cc2)CC1` (stereo partly drawn) [cpd 222, 2-({(1S)-1-[4-(1-{4-[(2E)-but-2-enoyl]piperazin-1-yl}propyl)phenyl]ethyl}amino)-8-(propan-2-yl)pyrido[2,3-d]pyrimidin-7(8H)-one], the 50% inhibitory concentration (IC50) against IDH1^R132C stood at 0.147 µM; with HT-1080 (IDH1^R132C) (setting [2]), 0.168 µM.
Regarding `C=CC(=O)N1CCN([C@@H](CC2CC2)c2ccc([C@H](C)Nc3cc4c(ccc(=O)n4C(C)C)cn3)cc2)CC1` [cpd 251, 7-{[(1S)-1-{4-[(1S)-1-(4-acryloylpiperazin-1-yl)-2-cyclopropylethyl]phenyl}ethyl]amino}-1-(propan-2-yl)-1,6-naphthyridin-2(1H)-one], the IC50 against IDH1^R132C was determined as 0.002 µM; with HT-1080 (IDH1^R132C) (setting [2]), 0.0023 µM.
For `C=C(C)C(=O)N1CCN(C(CC)c2ccc([C@H](C)Nc3ncc4ccc(=O)n(C(C)C)c4n3)cc2)CC1` (stereo partly drawn) [cpd 221, 2-{[(1S)-1-(4-{1-[4-(2-methylacryloyl)piperazin-1-yl]propyl}phenyl)ethyl]amino}-8-(propan-2-yl)pyrido[2,3-d]pyrimidin-7(8H)-one], in that order: 0.068 µM and 0.142 µM.
On to `C[C@H](Nc1ncc2ccc(=O)n(Cc3c(F)cccc3F)c2n1)c1ccc(C(=O)NC2CCC(F)(F)CC2)cc1` [cpd 75, 4-[(1S)-1-{[8-(2,6-difluorobenzyl)-7-oxo-pyrido[2,3-d]pyrimidin-2-yl]amino}ethyl]-N-(4,4-difluorocyclohexyl)benzamide], for which the IC50 was found to be 0.407 µM in test [1], 1.19 µM in the test with U87MG_IDH1R132H and 0.431 µM at IDH1^R132C.
As to `C=CC(=O)N1CC[C@H](Oc2ccc([C@H](C)Nc3ncc4ccc(=O)n(CC)c4n3)cc2)C1` [cpd 224], the results for the IC50 against IDH1^R132C and with HT-1080 (IDH1^R132C) (setting [2]) were 1.7 µM and 1.07 µM, respectively.
For `C#Cc1ccc(Cn2c(=O)ccc3cnc(N[C@@H](C)c4ccc(CN5CCN(C(=O)C=C)CC5)cc4)nc32)c(F)c1` [cpd 217, 2-{[(1S)-1-{4-[(4-acryloylpiperazin-1-yl)methyl]phenyl}ethyl]amino}-8-(4-ethynyl-2-fluorobenzyl)pyrido[2,3-d]pyrimidin-7(8H)-one], in that order: 0.015 µM and 0.0082 µM.
For the compound `C=CC(=O)N1CCN(C(=O)c2ccc([C@H](C)Nc3ncc4ccc(=O)n(CC(C)(C)C)c4n3)cc2F)CC1` [cpd 142, 2-{[(1S)-1-{4-[(4-acryloylpiperazin-1-yl)carbonyl]-3-fluorophenyl}ethyl]amino}-8-(2,2-dimethylpropyl)pyrido [2,3-d]pyrimidin-7(8H)-one], the IC50 worked out at 0.176 µM in test [1]; 0.214 µM against IDH1^R132C; 0.075 µM in the test with HT-1080 (IDH1^R132C) (Homo sapiens, HT-1080, 72 h); 0.552 µM on IDH2^R172K.
Consider `C=CC(=O)N1CCN(C(CC)c2ccc([C@H](C)Nc3ncc4ccc(=O)n(Cc5c(F)cccc5F)c4n3)cc2)CC1` (stereo partly drawn) [cpd 216, 2-{[(1S)-1-{4-[1-(4-acryloylpiperazin-1-yl)propyl]phenyl}ethyl]amino}-8-(2,6-difluorobenzyl)pyrido[2,3-d]pyrimidin-7(8H)-one], for which the IC50 on IDH1^R132C turned out to be 0.001 µM; in the test on HT-1080 (IDH1^R132C) (setting [2]), 0.0011 µM.
On the same counts, the results for `C=CC(=O)N1CCN(Cc2ccc([C@H](C)Nc3ncc4ccc(=O)n(CC)c4n3)cc2)[C@H](C(C)C)C1` [cpd 209, 2-{[(1S)-1-(4-{[(2R)-4-acryloyl-2-(propan-2-yl)piperazin-1-yl]methyl}phenyl)ethyl]amino}-8-ethylpyrido[2,3-d]pyrimidin-7(8H)-one] are 0.046 µM and 0.0302 µM.
On to `CC[C@H](c1ccc([C@H](C)Nc2ncc3ccc(=O)n(C(C)C)c3n2)cc1)N1CCN(C(=O)CCO)CC1` [cpd 243], for which the values for the IC50 against IDH1^R132C and in the test with HT-1080 (IDH1^R132C) (setting [2]) were 0.02 µM and 0.038 µM, respectively.
On to `C=CC(=O)N1CCN(C(CC)c2ccc([C@H](C)Nc3ncc4ccc(=O)n(C5CC5)c4n3)cc2)CC1` (stereo partly drawn) [cpd 218, 2-{[(1S)-1-{4-[1-(4-acryloylpiperazin-1-yl)propyl]phenyl}ethyl]amino}-8-cyclopropylpyrido[2,3-d]pyrimidin-7(8H)-one], for which the figures for the IC50 against IDH1^R132C and with HT-1080 (IDH1^R132C) (setting [2]) were 0.013 µM and 0.0021 µM, respectively.
For the compound `C/C=C/C(=O)N1CCN(Cc2ccc([C@H](C)Nc3ncc4ccc(=O)n(CC(C)(C)C)c4n3)cc2)CC1` [cpd 143, 2-({(1S)-1-[4-({4-[(2E)-but-2-enoyl]piperazin-1-yl}methyl)phenyl]ethyl}amino)-8-(2,2-dimethylpropyl) pyrido [2,3-d]pyrimidin-7(8H)-one], the values for the 50% inhibitory concentration (IC50) (in test [1]; against IDH1^R132C; in the test with HT-1080 (IDH1^R132C) (setting [2])) were 0.236 µM, 0.066 µM and 0.517 µM, respectively.
